IC50 data for 6 compounds are collected here from ChEMBL document CHEMBL5614455, “Novel Azepino[4,5-b]indolone as cGAS Inhibitors for Treating Immune-Mediated Diseases” (ACS Med Chem Lett, 2024).

What is called IC50 is the concentration that inhibits the measured activity by half.

Each structure is given as a SMILES string.

This experiment has as its target Cyclic GMP-AMP synthase (Homo sapiens, UniProt Q8N884). Briefly: Inhibition of full length his-tagged human recombinant cGAS extracted from Escherichia coli BL21 (DE3) incubated for 3 hrs by rapidfire 365 mass spectrometry analysis.

Cyclic GMP-AMP synthase, sequence (Q8N884 whole entry): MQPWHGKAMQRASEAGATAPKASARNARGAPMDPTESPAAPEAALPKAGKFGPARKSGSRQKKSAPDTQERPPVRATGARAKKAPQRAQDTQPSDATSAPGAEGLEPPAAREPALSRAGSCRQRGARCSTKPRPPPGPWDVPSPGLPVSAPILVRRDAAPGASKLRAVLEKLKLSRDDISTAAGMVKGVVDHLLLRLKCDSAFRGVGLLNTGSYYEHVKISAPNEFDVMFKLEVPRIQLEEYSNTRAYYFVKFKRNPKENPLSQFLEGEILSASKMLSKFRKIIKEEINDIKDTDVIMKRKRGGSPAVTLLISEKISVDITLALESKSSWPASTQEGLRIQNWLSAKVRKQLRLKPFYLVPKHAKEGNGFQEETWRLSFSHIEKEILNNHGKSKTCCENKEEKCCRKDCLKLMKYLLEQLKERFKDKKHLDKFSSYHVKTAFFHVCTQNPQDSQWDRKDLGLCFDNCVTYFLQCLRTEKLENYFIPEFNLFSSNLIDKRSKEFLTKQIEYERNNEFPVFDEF

Take `COCC[C@@H]1CNC(=O)[C@@H](C)c2c1[nH]c1c(Cl)c(Cl)cc(NCCO)c21`: the IC50 was 8 nM.

In the case of `CC(F)(F)C[C@@H]1CNC(=O)Cc2c1[nH]c1c(Cl)c(Cl)cc(CC#N)c21`, the IC50 worked out at 8 nM.

Consider `C[C@@H]1C(=O)NCCc2[nH]c3c(Cl)c(Cl)cc(OCCCO)c3c21`, for which the IC50 was 7 nM.

Consider `Cn1ncc(-c2cc(Cl)c(Cl)c3[nH]c4c(c23)CC(=O)NCC4CC(=O)O)n1` (stereo unspecified), for which the IC50 is 5 nM.

Consider `COCCCOc1cc(Cl)c(Cl)c2[nH]c3c(c12)[C@H](C)C(=O)NCC3`, for which the IC50 turned out to be 8 nM.

As to `C[C@@H]1C(=O)NCCc2[nH]c3c(Cl)c(Cl)cc(OCC#N)c3c21`, the half-maximal inhibitory concentration (IC50) was 2 nM.
